Measurements: patent US20100178286A1, “METHODS AND COMPOSITIONS FOR REDUCING FACIAL LINES AND WRINKLES” (priority 2007, published 2010)

Tested on: epidermis / stratum corneum (skin cell renewal)
Assay: Skin cell renewal (dansyl chloride) method
Type: in vivo, human
Settings: standard positive control; topical, pH 3.0 dissolved in water; vs untreated site
From the text: Several test methods were used to evaluate results of the compositions according to the present disclosure. One test method used was the skin cell renewal (dansyl chloride) method. The rate of cell renewal, or the transit time for an epidermal basal cell, to mature and slough off the skin surface can be assessed via a dansyl chloride staining method. As we age the rate of renewal decreases from about 15-20 days for a person to about 30 days for a person. […]
The full thickness epidermis was stained with a fluorescent dye as follows: 5% ultra pure dansyl chloride was milled into petrolatum and applied as a very thin film to standard adhesive bandages that were 2 cm by 3 cm. […] Staining was confirmed by viewing the sites with a long wave (ultra violet) UV light source to detect dansyl chloride fluorescence. […]
To assess product effects on cell renewal rates, test products were applied topically twice a day in a randomized fashion to the test sites with an untreated site serving as a control. […] Removal of the stain, reflecting loss of stratum corneum was monitored daily with the UV light source until complete removal, usually occurring in 3-4 weeks, of all stain was noted. The percentage increase in cell renewal was calculated as follows: […]

CC(O)C(=O)O (stereo not shown) [5% lactic acid, lactic acid]
increases in renewal rates (percentage increase in cell renewal): 25-30%
